Results from US20080207617A1, “Quinoline Derivatives and Quinazoline Derivatives Inhibiting Autophosphrylation of Flt3 and Medicinal Compositions Containing the Same” (KIRIN BEER KABUSHIKI KAISHA, priority 2002, published 2008).
Structures can show the parent of a compound that is named as a salt.

Assays:
MOLM13 = experiment: Cell growth inhibitory activities on cultured human leukemia cells MOLM-13 (WST-1); assay type: cell-based; settings: Homo sapiens, MOLM-13, 72 h, 3 days culture
Experimental: Pharmacological Test Example 4
Cell Growth Inhibitory Activities on Cultured Human Leukemia Cells
(§1) Human leukemia cells MOLM13 (subdivided from Hayashibara Biochemical Laboratories, Inc.) were seeded in an amount of 3×10^3 using a DMEM medium containing 10% fetal calf serum (purchased from GIBCO) in a 96-well flat bottom plate. A solution of a test compound in dimethyl sulfoxide was added to each well and was cultured in a 5% carbon dioxide incubator for 3 days. Three days after the initiation of the culture, 10 μl of a WST-1 solution in Cell Counting Kit (purchased from Wako Pure Chemical Industries, Ltd.) was added to each well for a color reaction. After proper color development, the absorbance was measured with a microplate reader under conditions of measurement wavelength 450 nm and reference wavelength 650 nm. The growth ratio for each well was determined by presuming the absorbance without the addition of the medicament to be 100% growth ratio and the absorbance of the well without seeding of the cells to be 0% growth ratio. The concentration of the test compound was varied on several levels, the cell growth ratio for each case was determined, and the concentration of the test compound necessary for inhibiting 50% of cell growth ratio (IC50) was calculated.

MV4-11 = experiment: Cell growth inhibitory test MV4-11 (WST-1); assay type: cell-based, human; settings: Homo sapiens, MV4-11, 72 h, MV4-11 cells, 3 days culture
Experimental: Pharmacological Test Example 2
Cell Growth Inhibitory Test
MV4-11 (ATCC number: CRL-9591) as human leukemia cells was seeded in an amount of 3×10^3 using a DMEM medium containing 10% fetal calf serum (purchased from GIBCO) in a 96-well flat bottom plate.
as §1, with “A” for “Human leukemia cells MOLM13 (subdivided from Hayashibara Biochemical Laboratories, Inc.) were seeded in an amount of 3×10^3 using a DMEM medium containing 10% fetal calf serum (purchased from GIBCO) in a 96-well flat bottom plate. A”

Compound	IC50 (MOLM13) [nM]	IC50 (MV4-11) [nM]
COc1cc2nccc(Oc3ccc(NC(=O)NCCC(C)(C)C)c(C)c3)c2cc1OC [Compound 2, 1-[4-(6,7-Dimethoxy-quinolin-4-yloxy)-2-methyl-phenyl]-3-(3,3-dimethyl-butyl)-urea]	770	395
COc1cc(Oc2ccnc3cc(OC)c(OC)cc23)ccc1NC(=O)NCCC(C)(C)C [Compound 4, 1-[4-(6,7-Dimethoxy-quinolin-4-yloxy)-2-methoxy-phenyl]-3-(3,3-dimethyl-butyl)-urea]	653	889
COc1cc2nccc(Oc3ccc(NC(=O)NCCC(C)(C)C)c(C)c3C)c2cc1OC [Compound 7, 1-[4-(6,7-Dimethoxy-quinolin-4-yloxy)-2,3-dimethyl-phenyl]-3-(3,3-dimethyl-butyl)-urea]	593	558
COc1cc2nccc(Oc3ccc(NC(=O)NCCC(C)(C)C)c(Cl)c3)c2cc1OC [Compound 11, 1-[2-Chloro-4-(6,7-dimethoxy-quinolin-4-yloxy)-phenyl]-3-(3,3-dimethyl-butyl)-urea hydrochloride]	416	300
COc1cc2nccc(Oc3ccc(NC(=O)NC(C)C)cc3)c2cc1OC [Compound 20, 1-[4-(6,7-Dimethoxy-quinolin-4-yloxy)-phenyl]-3-isopropyl-urea]	39	31
CCCNC(=O)Nc1ccc(Oc2ccnc3cc(OC)c(OC)cc23)cc1 [Compound 21, 1-[4-(6,7-Dimethoxy-quinolin-4-yloxy)-phenyl]-3-propyl-urea]	22	31
COc1cc2nccc(Oc3ccc(NC(=O)NCCN(C)C)cc3)c2cc1OC [Compound 25, 1-[4-(6,7-Dimethoxy-quinolin-4-yloxy)-phenyl]-3-(2-dimethylamino-ethyl)-urea]	258	66
CNC(=O)Nc1ccc(Oc2ccnc3cc(OC)c(OC)cc23)cc1 [Compound 27, 1-[4-(6,7-Dimethoxy-quinolin-4-yloxy)-phenyl]-3-methyl-urea]	45	32
CCNC(=O)Nc1ccc(Oc2ccnc3cc(OC)c(OC)cc23)cc1 [Compound 28, 1-[4-(6,7-Dimethoxy-quinolin-4-yloxy)-phenyl]-3-ethyl-urea]	26	19
COc1cc2c(Oc3ccc(NC(=O)NCCC(C)(C)C)c(Cl)c3)ccnc2cc1OCCN1CCCC1 [Compound 48, 1-{2-Chloro-4-[6-methoxy-7-(2-pyrrolidin-1-yl-ethoxy)-quinolin-4-yloxy]-phenyl}-3-(3,3-dimethyl-butyl)-urea]	–	217

These reach a lower IC50 (MV4-11). Values come first.

IC50 (MOLM13) [nM]	IC50 (MV4-11) [nM]	Compound
24	8	COc1cc2nccc(Oc3ccc(NC(=O)NCCC(C)(C)C)c(F)c3)c2cc1OC [Compound 9, 1-[4-(6,7-Dimethoxy-quinolin-4-yloxy)-2-fluoro-phenyl]-3-(3,3-dimethyl-butyl)-urea hydrochloride]
10	6	CCCCNC(=O)Nc1ccc(Oc2ccnc3cc(OC)c(OC)cc23)cc1 [Compound 19, 1-Butyl 3-[4-(6,7-dimethoxy-quinolin-4-yloxy)-phenyl]-urea]
7	4	CCCCCCNC(=O)Nc1ccc(Oc2ccnc3cc(OC)c(OC)cc23)cc1 [Compound 22, 1-[4-(6,7-Dimethoxy-quinolin-4-yloxy)-phenyl]-3-hexyl-urea]
4	2	CCCCCNC(=O)Nc1ccc(Oc2ccnc3cc(OC)c(OC)cc23)cc1 [Compound 23, 1-[4-(6,7-Dimethoxy-quinolin-4-yloxy)-phenyl]-3-pentyl-urea]
24	18	COCCCNC(=O)Nc1ccc(Oc2ccnc3cc(OC)c(OC)cc23)cc1 [Compound 24, 1-[4-(6,7-Dimethoxy-quinolin-4-yloxy)-phenyl]-3-(3-methoxy-propyl)-urea]
3	1	COc1cc2nccc(Oc3ccc(NC(=O)NCCC(C)C)cc3)c2cc1OC [Compound 29, 1-[4-(6,7-Dimethoxy-quinolin-4-yloxy)-phenyl]-3-(3-methyl-butyl)-urea]
